Experimental data: patent US20240108598A1, “Danegaptide for Use in the Treatment or Prevention of a Kidney Disease” (CIANA THERAPEUTICS APS, priority 2021, published 2024)

System: HK2 cells
Assay: Crystal violet assay
Assay type: cell-based, human
Conditions: 48 h
Experimental: HK2 cells were cultured in low glucose (5 mM) for 48 h, prior to being serum-starved overnight and subsequently treated with TGFβ1 (10 ng/mL)±danegaptide (50 nM-1 μM) for 48 h (FIG. 1A, n=3).
This simple assay was used to measure the relative density of adhered cells to multi-well dishes. Crystal Violet stains DNA and can be quantified colourmetrically after solubilisation. HK2 cells were seeded in 12-well plates and cultured in low glucose DMEM/F12 (5 mM) for 48 h, prior to overnight serum-starvation, then subsequently stimulated for 48 h with TGFβ1 (10 ng/ml)±danegaptide (50-1000 nM). The assay has been described previously (Hills, C. E.; Jin, T.; Siamantouras, E.; Liulssac, I. K. K.; Jefferson, K. P.; Squires, P. E. “Special K” and a Loss of Cell-To-Cell Adhesion in Proximal Tubule-Derived Epithelial Cells: Modulation of the Adherens Junction Complex by Ketamine. PLoS One 2013, 8, e71819). Briefly, cells were fixed using paraformaldehyde for 10 mins, washed with PBS and incubated for 10 mins at RT in a 1% crystal violet solution. After several more washes, the stain was solubilised using 1% SDS, and absorbance measured by a plate reader.

## NCC(=O)N1C[C@H](NC(=O)c2ccccc2)C[C@H]1C(=O)O [danegaptide, (2S,4R)-1-(2-aminoacetyl)-4-benzamidopyrrolidine2-carboxylic acid]
TGFβ1 10 ng/mL + danegaptide 50 nM
  crystal violet staining, of control: 98.2±1.9%
TGFβ1 10 ng/mL + danegaptide 100 nM
  crystal violet staining, of control: 97.5±1.8%
TGFβ1 10 ng/mL + danegaptide 1 μM
  crystal violet staining, of control: 85.8±5.3%
Danegaptide alone 50 nM
  crystal violet staining, of control: 98.3±2.5%
Danegaptide alone 100 nM
  crystal violet staining, of control: 99.6±2.7%
Danegaptide alone 1 μM
  crystal violet staining, of control: 98.5±2.2%
